Patent publication US12472185B2, “Methods for killing antibiotic tolerant bacteria” (THE PENN STATE RESEARCH FOUNDATION, priority 2020, dated 2025)

Key:
S. aureus = test: LIVE/DEAD staining; format: cell-based, Staphylococcus aureus; conditions: 100 μM, 1 hr
Protocol: FIG. 4. NPIMA lyses Escherichia coli, Pseudomonas aeruginosa, and Staphylococcus aureus. LIVE/DEAD staining of (a) E. coli BW25113 after 0.75 hr, (b) P. aeruginosa PA14 after 1 hr, and (c) S. aureus after 1 hr treatment with NPIMA at 100 μM. […] White arrows indicate lysed cells. Representative images are shown. Scale bar=[…]. NPIMA, 5-nitro-3-phenyl-1H-indol-2-ylmethylamine hydrochloride.
Cell viability after treating with NPIMA was determined using the using the LIVE/DEAD BacLight Bacterial Viability Kit (catalog number, L7012; Molecular Probes, Inc., Eugene, OR). The fluorescence signal was analyzed via a Zeiss Axioscope.A1 using excitation at 485 nm and emission at 530 nm for green fluorescence and using excitation at 485 nm and emission at 630 nm for red fluorescence.

E. coli BW25113 = test: Lysis assays (total protein and DNA in supernatants); format: cell-based, Escherichia coli; conditions: 100 μM, 1 hr
Protocol: (§1) FIG. 5. NPIMA lyses Escherichia coli, Pseudomonas aeruginosa, and Staphylococcus aureus. Total protein (a) and DNA (b) found in supernatants as evidence of cell lysis after treatment of cells at a turbidity of 0.8 at 600 nm with 100 μM NPIMA after 1 hr for E. coli and P. aeruginosa and 6 hr for S. aureus. NPIMA, 5-nitro-3-phenyl-1H-indol-2-yl-methylamine hydrochloride.
(§2) Exponentially-growing E. coli BW25113 cells (turbidity 0.8 at 600 nm) were washed twice with 0.85% NaCl, resuspended in 1 ml of 1×PBS, and NPIMA (100 μM) was added for 1 hr for E. coli and P. aeruginosa and 6 hr for S. aureus with shaking at 250 rpm (0.1% DMSO was used as the negative control). Cell supernatants were collected after centrifuging at 6,500 g (4° C. for 15 min), and total protein was measured by the Bicinchoninic Acid (BCA) protein assay Kit (Prod #23227; Pierce). DNA in the supernatant (199 μl) was detected by adding 1 μl of Picogreen (P7589; Invitrogen) and incubating for 5 min at room temperature in the dark room. The fluorescence signal was read by a Tecan microplate reader (Infinite M200PRO) with 480 nm excitation and 520 nm emission by utilizing a calibration curved made with plasmid pEX18Ap at 0, 0.004, 0.008, 0.016, 0.063, 0.125, 0.25, and 0.5 ng/μl.

[1] = tested on: natural E. coli persister cells; test: Survival of naturally-occurring persister cells (ampicillin only); format: cell-based, Escherichia coli; conditions: NPIMA, compared with rifampicin-generated persisters
Protocol: FIG. 9. NPIMA kills naturally-occurring E. coli persister cells. Survival of E. coli with 5-iodoindole and solvent negative control (DMSO) also shown. Asterisk (*) indicates no viable cells were detected. The persister cells were harvested at stationary-phase of E. coli (turbidity of 6.0 at 600 nm) and non-persister cells were removed by treatment.
E. coli persister cells were prepared following our previous method (Kim, Yamasaki, et al., 2018; Kwan, Valenta, Benedik, & Wood, 2013). Exponentially-growing cells (turbidity of 0.8 at 600 nm) were treated with rifampicin (100 μg/ml for 30 min) to stop transcription, washed, and any remaining nonpersister cells were lysed by ampicillin in LB (100 μg/ml for 3 hr). Cells were harvested by centrifugation (17,000 g for 1 min) and washed with 1× phosphate-buffered saline buffer (PBS, 8 g NaCl, 0.2 g KCl, 1.15 g Na2HPO4, and 0.2 g KH2PO4 per 1,000 ml) twice to remove all possible carbon sources, then resuspended with 1×PBS. […]
For bacterial viability, cells were washed twice with 0.85% NaCl, resuspended in 1×PBS, and cell counts were determined via the drop assay (Donegan, Matyac, Seidler, & Porteous, 1991). […] Cell viability was determined via a cell counting kit (CCK-8 Kit, ab228554; Abcam), and cytotoxicity was determined via the lactate dehydrogenase (LDH) assay (LDH Assay Kit, MK401; Takara).

E coli = test: Resistance test by daily propagation at 0.25 MIC; format: cell-based, Escherichia coli; conditions: 7 days at 0.25 MIC (25 μM), then 1 MIC (100 μM) overnight
Protocol: After 7 days, the sequentially-propagated E. coli cells were contacted with LB with 1 MIC of NPIMA (100 μM) and incubated overnight to allow any putative resistant cells to grow and increase the turbidity.

[2] = tested on: P. aeruginosa PA14 exponential cells; test: Survival of exponentially-growing cells (drop assay); format: cell-based, Pseudomonas aeruginosa; conditions: 100 μM
Protocol: FIG. 2. NPIMA eradicates Escherichia coli, Pseudomonas aeruginosa, and Staphylococcus aureus exponential cells. Survival after 6 hr for (a) E. coli BW25113 with NPIMA and 5-iodoindole at 100 μM, (b) P. aeruginosa PA14 with NPIMA and 5-iodoindole at 100 μM, and (c) S. aureus with NPIMA and 5-iodoindole at 200 μM. Asterisk indicates no viable cells detected. NPIMA, 5-nitro-3-phenyl-1H-indol-2-yl-methylamine hydrochloride.
For bacterial viability, cells were washed twice with 0.85% NaCl, resuspended in 1×PBS, and cell counts were determined via the drop assay (Donegan, Matyac, Seidler, & Porteous, 1991). For human cell viability, pre-cultured human cancer HT-29 cells were dispensed in 98 μl in 96-well plates with approximately 5,000 cells/well. NPIMA was added (2 μl) to produce concentrations of 5, 10, 100, and 200 μM. For controls, Triton X-100 (positive control) and DMSO (negative solvent control), were used, and the medium was used for background. Plates were incubated in a humidified incubator (37° C., 5% CO2) for 24 hr. Cell viability was determined via a cell counting kit (CCK-8 Kit, ab228554; Abcam), and cytotoxicity was determined via the lactate dehydrogenase (LDH) assay (LDH Assay Kit, MK401; Takara).

P. aeruginosa = test: Lysis assays (total protein and DNA in supernatants); format: cell-based, Pseudomonas aeruginosa; conditions: 100 μM, 1 hr
Protocol: as §1, §2

Cl.NCc1[nH]c2ccc([N+](=O)[O-])cc2c1-c1ccccc1 [NPIMA, [(5-nitro-3-phenyl-1H-indol-2-yl)methyl]amine hydrochloride]
cells killed (LIVE/DEAD) (S. aureus): 27%
increase in DNA in the supernatants compared to DMSO alone (E. coli BW25113): 3.8±0.8
increase in total cell protein in supernatants compared to DMSO alone (E. coli BW25113): 10±2
killing of natural persisters (ampicillin treatment only) [1]: killed in an identical manner
resistance after propagation (E coli): all of the E. coli cells were killed
time to eradicate exponentially-growing P. aeruginosa PA14 cells [2]: 6 h
increase in DNA released compared to DMSO alone (P. aeruginosa): 1.19±0.09 fold
total protein released compared to DMSO alone (P. aeruginosa): 4.0±0.4 fold
